# Test results reported in ChEMBL document CHEMBL4316586, “A comprehensive review of salinomycin derivatives as potent anticancer and anti-CSCs agents” (Eur J Med Chem, 2019).
# What was measured:
# MCF7 [1] = assay: Antiproliferative activity against human MCF7 cells by MTT assay; assay type: functional, cell-based
# JIMT-1 [2] = assay: Antiproliferative activity against human JIMT1 cells by MTT assay; assay type: functional, cell-based
# MDA-MB-231 [3] = assay: Antiproliferative activity against human MDA-MB-231 cells after 48 hrs by MTT assay; assay type: functional, cell-based; settings: MDA-MB-231, 48 h
# HGC-27 [4] = assay: Antiproliferative activity against human HGC27 cells after 48 hrs by MTT assay; assay type: functional, cell-based; settings: HGC-27, 48 h
# HT-29 [5] = assay: Antiproliferative activity against human HT-29 cells after 48 hrs by MTT assay; assay type: functional, cell-based; settings: HT-29, 48 h
# HGC-27 [6] = assay: Antiproliferative activity against human HGC27 cells by MTT assay; assay type: functional, cell-based
# HT-29 [7] = assay: Antiproliferative activity against human HT-29 cells by MTT assay; assay type: functional, cell-based
# MDA-MB-231 [8] = assay: Antiproliferative activity against human MDA-MB-231 cells by MTT assay; assay type: functional, cell-based
# U-87 MG = assay: Antiproliferative activity against human U87 cells by MTT assay; assay type: functional, cell-based, U-87MG ATCC
# HeLa = assay: Antiproliferative activity against human HeLa cells by MTT assay; assay type: functional, cell-based
# Caco-2 = assay: Antiproliferative activity against human Caco2 cells by MTT assay; assay type: functional, cell-based
# JIMT-1 [9] = assay: Antiproliferative activity against human JIMT1 cells; assay type: functional, cell-based
# MCF7 [10] = assay: Antiproliferative activity against human MCF7 cells; assay type: functional, cell-based
smiles,measurement,setting,value
CC[C@@H](C(=O)[C@@H](C)[C@@H](O)[C@H](C)[C@@H]1O[C@@H]([C@@H](CC)C(=O)O)CC[C@@H]1C)[C@H]1O[C@]2(C=C[C@@H](OC(=O)c3ccccc3)[C@]3(CC[C@@](C)([C@H]4CC[C@](O)(CC)[C@H](C)O4)O3)O2)[C@H](C)C[C@@H]1C,IC50,MCF7 [1],200 nM
same,IC50,JIMT-1 [2],360 nM
CC[C@@H](C(=O)[C@@H](C)[C@@H](O)[C@H](C)[C@@H]1O[C@@H]([C@@H](CC)C(=O)O)CC[C@@H]1C)[C@H]1O[C@@]2(C=C[C@@H](O)[C@]3(CC[C@@](C)([C@H]4CC[C@](O)(CC)[C@H](C)O4)O3)O2)[C@H](C)C[C@@H]1C,IC50,MDA-MB-231 [3],> 10000 nM
same,IC50,HGC-27 [4],> 10000 nM
same,IC50,HT-29 [5],> 10000 nM
CCC(=O)O[C@H]1C=C[C@]2(O[C@H]([C@@H](CC)C(=O)[C@@H](C)[C@@H](O)[C@H](C)[C@@H]3O[C@@H]([C@@H](CC)C(=O)O)CC[C@@H]3C)[C@@H](C)C[C@H]2C)O[C@@]12CC[C@@](C)([C@H]1CC[C@](O)(CC)[C@H](C)O1)O2,IC50,HGC-27 [6],890 nM
same,IC50,HT-29 [7],840 nM
same,IC50,MDA-MB-231 [8],1890 nM
CC[C@@H](C(=O)[C@@H](C)[C@@H](O)[C@H](C)[C@@H]1O[C@@H]([C@@H](CC)C(=O)O)CC[C@@H]1C)[C@H]1O[C@]2(C=C[C@@H](OC(C)=O)[C@]3(CC[C@@](C)([C@H]4CC[C@](O)(CC)[C@H](C)O4)O3)O2)[C@H](C)C[C@@H]1C,IC50,MCF7 [1],110 nM
same,IC50,JIMT-1 [2],110 nM
CC[C@@H](C(=O)[C@@H](C)[C@@H](O)[C@H](C)[C@@H]1O[C@@H]([C@@H](CC)C(=O)O)CC[C@@H]1C)[C@H]1O[C@]2(C=C[C@@H](OC(=O)C(C)(C)C)[C@]3(CC[C@@](C)([C@H]4CC[C@](O)(CC)[C@H](C)O4)O3)O2)[C@H](C)C[C@@H]1C,IC50,MCF7 [1],170 nM
same,IC50,JIMT-1 [2],230 nM
CC[C@@H](C(=O)[C@@H](C)[C@@H](O)[C@H](C)[C@@H]1O[C@@H]([C@@H](CC)C(=O)O)CC[C@@H]1C)[C@H]1O[C@]2(C=C[C@@H](OC(=O)C3CCCCC3)[C@]3(CC[C@@](C)([C@H]4CC[C@](O)(CC)[C@H](C)O4)O3)O2)[C@H](C)C[C@@H]1C,IC50,MCF7 [1],240 nM
same,IC50,JIMT-1 [2],300 nM
CC[C@@H](C(=O)[C@@H](C)[C@@H](O)[C@H](C)[C@@H]1O[C@@H]([C@@H](CC)C(=O)O)CC[C@@H]1C)[C@H]1O[C@]2(C=C[C@H](n3cc(-c4ccccn4)nn3)[C@]3(CC[C@@](C)([C@H]4CC[C@](O)(CC)[C@H](C)O4)O3)O2)[C@H](C)C[C@@H]1C,IC50,U-87 MG,15700 nM
same,IC50,HeLa,610 nM
same,IC50,Caco-2,3310 nM
CC[C@@H](C(=O)[C@@H](C)[C@@H](O)[C@H](C)[C@@H]1O[C@@H]([C@@H](CC)C(=O)O)CC[C@@H]1C)[C@H]1O[C@]2(C=C[C@@H](OC(=O)c3cnco3)[C@]3(CC[C@@](C)([C@H]4CC[C@](O)(CC)[C@H](C)O4)O3)O2)[C@H](C)C[C@@H]1C,IC50,MCF7 [1],230 nM
same,IC50,JIMT-1 [2],240 nM
CC[C@@H](C(=O)[C@@H](C)[C@@H](O)[C@H](C)[C@@H]1O[C@@H]([C@@H](CC)C(=O)O)CC[C@@H]1C)[C@H]1O[C@@]2(C=C[C@@H](OCc3ccccc3)[C@]3(CC[C@@](C)([C@H]4CC[C@](O)(CC)[C@H](C)O4)O3)O2)[C@H](C)C[C@@H]1C,IC50,MDA-MB-231 [3],> 10000 nM
same,IC50,HGC-27 [4],> 10000 nM
same,IC50,HT-29 [5],> 10000 nM
CC[C@@H](C(=O)[C@@H](C)[C@@H](O)[C@H](C)[C@@H]1O[C@@H]([C@@H](CC)C(=O)O)CC[C@@H]1C)[C@H]1O[C@]2(C=C[C@H](OC(=O)c3ccccc3)[C@]3(CC[C@@](C)([C@H]4CC[C@](O)(CC)[C@H](C)O4)O3)O2)[C@H](C)C[C@@H]1C,IC50,HGC-27 [6],240 nM
same,IC50,HT-29 [7],180 nM
same,IC50,MDA-MB-231 [8],790 nM
CC[C@@H](C(=O)[C@@H](C)[C@@H](O)[C@H](C)[C@@H]1O[C@@H]([C@@H](CC)C(=O)O)CC[C@@H]1C)[C@H]1O[C@@]2(C=C[C@@H](OCc3ccccc3)[C@@]3(CC[C@@](C)([C@H]4CC[C@](O)(CC)[C@H](C)O4)O3)O2)[C@H](C)C[C@@H]1C,IC50,MDA-MB-231 [3],6560 nM
same,IC50,HGC-27 [4],4140 nM
same,IC50,HT-29 [5],2800 nM
CC[C@@H](C(=O)[C@@H](C)[C@@H](O)[C@H](C)[C@@H]1O[C@@H]([C@@H](CC)C(=O)O)CC[C@@H]1C)[C@H]1O[C@]2(C=C[C@@H](OC(=O)NC(C)(C)C)[C@]3(CC[C@@](C)([C@H]4CC[C@](O)(CC)[C@H](C)O4)O3)O2)[C@H](C)C[C@@H]1C,IC50,MCF7 [1],420 nM
same,IC50,JIMT-1 [2],380 nM
CC[C@@H](C(=O)[C@@H](C)[C@@H](O)[C@H](C)[C@@H]1O[C@@H]([C@@H](CC)C(=O)O)CC[C@@H]1C)[C@H]1O[C@]2(C=C[C@@H](OC(=O)C(C)C)[C@]3(CC[C@@](C)([C@H]4CC[C@](O)(CC)[C@H](C)O4)O3)O2)[C@H](C)C[C@@H]1C,IC50,MCF7 [1],190 nM
same,IC50,JIMT-1 [2],150 nM
CC[C@@H](C(=O)[C@@H](C)[C@@H](O)[C@H](C)[C@@H]1O[C@@H]([C@@H](CC)C(=O)O)CC[C@@H]1C)[C@H]1O[C@]2(C=C[C@@H](OC(=O)c3ccco3)[C@]3(CC[C@@](C)([C@H]4CC[C@](O)(CC)[C@H](C)O4)O3)O2)[C@H](C)C[C@@H]1C,IC50,MCF7 [1],130 nM
same,IC50,JIMT-1 [2],160 nM
CC[C@@H](C(=O)[C@@H](C)[C@@H](O)[C@H](C)[C@@H]1O[C@@H]([C@@H](CC)C(=O)O)CC[C@@H]1C)[C@H]1O[C@]2(C=C[C@H](OC(=O)CC(C)C)[C@]3(CC[C@@](C)([C@H]4CC[C@](O)(CC)[C@H](C)O4)O3)O2)[C@H](C)C[C@@H]1C,IC50,HGC-27 [6],860 nM
same,IC50,HT-29 [7],890 nM
same,IC50,MDA-MB-231 [8],2780 nM
C=CC(=O)O[C@@H]1C=C[C@]2(O[C@H]([C@@H](CC)C(=O)[C@@H](C)[C@@H](O)[C@H](C)[C@@H]3O[C@@H]([C@@H](CC)C(=O)O)CC[C@@H]3C)[C@@H](C)C[C@H]2C)O[C@@]12CC[C@@](C)([C@H]1CC[C@](O)(CC)[C@H](C)O1)O2,IC50,MCF7 [1],610 nM
same,IC50,JIMT-1 [2],390 nM
CC[C@@H](C(=O)[C@@H](C)[C@@H](O)[C@H](C)[C@@H]1O[C@@H]([C@@H](CC)C(=O)O)CC[C@@H]1C)[C@H]1O[C@@]2(C=C[C@@H](O)[C@@]3(CC[C@@](C)([C@H]4CC[C@](O)(CC)[C@H](C)O4)O3)O2)[C@H](C)C[C@@H]1C,IC50,MDA-MB-231 [3],5700 nM
same,IC50,HGC-27 [4],620 nM
same,IC50,HT-29 [5],750 nM
CC[C@@H](C(=O)[C@@H](C)[C@@H](O)[C@H](C)[C@@H]1O[C@@H]([C@@H](CC)C(=O)O)CC[C@@H]1C)[C@H]1O[C@]2(CC[C@@H](O)[C@]3(CC[C@@](C)([C@H]4CC[C@](O)(CC)[C@H](C)O4)O3)O2)[C@H](C)C[C@@H]1C,IC50,JIMT-1 [9],1000 nM
same,IC50,MCF7 [10],890 nM
CC[C@@H](C(=O)[C@@H](C)[C@@H](O)[C@H](C)[C@@H]1O[C@@H]([C@@H](CC)C(=O)O)CC[C@@H]1C)[C@H]1O[C@]2(C=C[C@H](n3cc(-c4ccc(-c5ccccc5)cc4)nn3)[C@]3(CC[C@@](C)([C@H]4CC[C@](O)(CC)[C@H](C)O4)O3)O2)[C@H](C)C[C@@H]1C,IC50,U-87 MG,50000 nM
same,IC50,HeLa,330 nM
same,IC50,Caco-2,1290 nM
CC[C@@H](C(=O)[C@@H](C)[C@@H](O)[C@H](C)[C@@H]1O[C@@H]([C@@H](CC)C(=O)O)CC[C@@H]1C)[C@H]1O[C@]2(C=C[C@H](OC(=O)c3ccc(F)cc3)[C@]3(CC[C@@](C)([C@H]4CC[C@](O)(CC)[C@H](C)O4)O3)O2)[C@H](C)C[C@@H]1C,IC50,HGC-27 [6],280 nM
same,IC50,HT-29 [7],160 nM
same,IC50,MDA-MB-231 [8],790 nM
CCNC(=O)O[C@@H]1C=C[C@]2(O[C@H]([C@@H](CC)C(=O)[C@@H](C)[C@@H](O)[C@H](C)[C@@H]3O[C@@H]([C@@H](CC)C(=O)O)CC[C@@H]3C)[C@@H](C)C[C@H]2C)O[C@@]12CC[C@@](C)([C@H]1CC[C@](O)(CC)[C@H](C)O1)O2,IC50,MCF7 [1],160 nM
same,IC50,JIMT-1 [2],260 nM
CCOC(=O)O[C@@H]1C=C[C@]2(O[C@H]([C@@H](CC)C(=O)[C@@H](C)[C@@H](O)[C@H](C)[C@@H]3O[C@@H]([C@@H](CC)C(=O)O)CC[C@@H]3C)[C@@H](C)C[C@H]2C)O[C@@]12CC[C@@](C)([C@H]1CC[C@](O)(CC)[C@H](C)O1)O2,IC50,MCF7 [1],130 nM
same,IC50,JIMT-1 [2],90 nM
CC[C@@H](C(=O)[C@@H](C)[C@@H](O)[C@H](C)[C@@H]1O[C@@H]([C@@H](CC)C(=O)O)CC[C@@H]1C)[C@H]1O[C@]2(C=C[C@@H](OC(=O)Oc3ccccc3)[C@]3(CC[C@@](C)([C@H]4CC[C@](O)(CC)[C@H](C)O4)O3)O2)[C@H](C)C[C@@H]1C,IC50,MCF7 [1],240 nM
same,IC50,JIMT-1 [2],200 nM
CC[C@@H](C(=O)[C@@H](C)[C@@H](O)[C@H](C)[C@@H]1O[C@@H]([C@@H](CC)C(=O)O)CC[C@@H]1C)[C@H]1O[C@]2(C=C[C@H](OC(C)=O)[C@]3(CC[C@@](C)([C@H]4CC[C@](O)(CC)[C@H](C)O4)O3)O2)[C@H](C)C[C@@H]1C,IC50,HGC-27 [6],940 nM
same,IC50,HT-29 [7],800 nM
same,IC50,MDA-MB-231 [8],1960 nM
CC[C@@H](C(=O)[C@@H](C)[C@@H](O)[C@H](C)[C@@H]1O[C@@H]([C@@H](CC)C(=O)O)CC[C@@H]1C)[C@H]1O[C@]2(C=C[C@H](n3cc(COC(C(F)(F)F)(C(F)(F)F)C(F)(F)F)nn3)[C@]3(CC[C@@](C)([C@H]4CC[C@](O)(CC)[C@H](C)O4)O3)O2)[C@H](C)C[C@@H]1C,IC50,U-87 MG,16600 nM
same,IC50,HeLa,290 nM
same,IC50,Caco-2,440 nM
CC[C@@H](C(=O)[C@@H](C)[C@@H](O)[C@H](C)[C@@H]1O[C@@H]([C@@H](CC)C(=O)O)CC[C@@H]1C)[C@H]1O[C@]2(C=C[C@H](n3cc(-c4ccc(C(C)(C)C)cc4)nn3)[C@]3(CC[C@@](C)([C@H]4CC[C@](O)(CC)[C@H](C)O4)O3)O2)[C@H](C)C[C@@H]1C,IC50,U-87 MG,18900 nM
same,IC50,HeLa,2010 nM
same,IC50,Caco-2,1820 nM
